The text below walks through data of patent US10383831B2, “2,4,6-trialkoxystryl aryl sulfones, sulfonamides and carboxamides, and methods of preparation and use” (Temple University—Of The Commonwealth System Of Higher …, priority 2015, dated 2019).

Each structure is given as a SMILES string.

Experiment [1] relates to DU145 (prostate cancer). In words: Cytotoxicity assay, DU145 tumor cells. Type of experiment: cell-based. Conditions: Homo sapiens, DU-145, 96 hours treatment. The protocol:
(§1) The effect of the compounds of the invention on tumor cells was determined by the assay described by Latham et al., Oncogene 12:827-837 (1996). Tumor cells K562 (chronic myelogenous leukaemia) or DU145 (prostate cancer) were plated in 12-well dishes at a cell density of 2.5×10^4 cells well. The plated cells were treated 24 hours later with a compound of the invention dissolved in DMSO at multiple concentrations ranging from 0.001 to 10 μM. The plates were examined 96 hours later under an inverted microscope, Olympus CK-2 using a 10× objective, and compound activity was noted by physical observation. When necessary, the total number of viable cells was determined by trypsinizing the wells and counting the number of viable cells, as determined by trypan blue exclusion, using a hemacytometer.

Experiment [2] concerns K562 (chronic myelogenous leukaemia). The experiment can be described thus: Cytotoxicity assay, K562 tumor cells. It is filed as cell-based. As to conditions: Homo sapiens, 96 hours treatment. The protocol:
as §1

A word on the IC50: it is the midpoint of a concentration-inhibition curve. The compound `COc1cc(OC)c(/C=C/S(=O)(=O)Cc2ccc(OC)c(N/C=C\C(=O)c3cc(OC)c(OC)c(OC)c3)c2)c(OC)c1` [Ex. 5, (Z)-1-(3,4,5-trimethoxyphenyl)-3-((2-methoxy-5-(((E)-2,4,6-trimethoxystyrylsulfonyl)methyl)phenyl)amino) prop-2-en-1-one] came in with a half-maximal inhibitory concentration (IC50) in experiment [1] of 0.009 µM.

Turning to `COc1cc(OC)c(/C=C/S(=O)(=O)Cc2ccc(OC)c(N/C=C\C(=O)c3cc(OC)c(OC)c(OC)c3Br)c2)c(OC)c1` [Ex. 8, (Z)-1-(2-bromo-3,4,5-trimethoxyphenyl)-3-((2-methoxy-5-(((E)-2,4,6-trimethoxystyrylsulfonyl)methyl)phenyl)amino)prop-2-en-1-one], the IC50 in experiment [1] and in experiment [2] was 0.075 µM throughout.

On to `C=CC(=O)Nc1cc(CS(=O)(=O)/C=C/c2c(OC)cc(OC)cc2OC)ccc1OC` [Ex. 201, (E)-N-(2-methoxy-5-(((2,4,6-trimethoxystyryl)sulfonyl)methyl)phenyl)acrylamide], for which the half-inhibitory concentration (IC50) in experiment [1] and in experiment [2] was 0.75 µM each time.

Take `COC(=O)/C=C\C(=O)Nc1cc(CS(=O)(=O)/C=C/c2c(OC)cc(OC)cc2OC)ccc1OC` [Ex. 176, (Z)-methyl 4-((2-methoxy-5-(((E)-2,4,6-trimethoxystyrylsulfonyl)methyl)phenyl)amino)-4-oxobut-2-enoate]: the concentration for half-maximal inhibition (IC50) was 2 µM in experiment [1] and 0.25 µM in experiment [2].

`CCOC(=O)/C=C/CNc1cc(CS(=O)(=O)/C=C/c2c(OC)cc(OC)cc2OC)ccc1OC` [Ex. 181, (E)-Ethyl 4-((2-methoxy-5-(((E)-2,4,6-trimethoxystyrylsulfonyl)methyl)phenyl)amino)but-2-enoate]: the IC50 in experiment [1] and in experiment [2] was 0.25 µM each time.

In the case of `COc1cc(OC)c(/C=C/S(=O)(=O)Cc2ccc(OC)c(N/C=C\C(C)=O)c2)c(OC)c1` [Ex. 2, (Z)-4-((2-Methoxy-5-(((E)-2,4,6-trimethoxystyrylsulfonyl)methyl)phenyl)amino)but-3-en-2-one], the half-inhibitory concentration (IC50) in experiment [1] and in experiment [2] was 0.1 µM throughout.

On to `COc1ccc(C(=O)/C=C\Nc2cc(CS(=O)(=O)/C=C/c3c(OC)cc(OC)cc3OC)ccc2OC)cc1` [Ex. 4, (Z)-1-(4-methoxyphenyl)-3-((2-methoxy-5-(((E)-2,4,6-trimethoxystyrylsulfonyl)methyl)phenyl)amino)prop-2-en-1-one], for which the IC50 in experiment [1] and in experiment [2] was 0.05 µM each time.

On to `CCOC(=O)C(=CNc1cc(CS(=O)(=O)/C=C/c2c(OC)cc(OC)cc2OC)ccc1OC)C(=O)OCC` [Ex. 191, (E)-diethyl-2-(((2-methoxy-5-(((2,4,6-trimethoxystyryl)sulfonyl)methyl)phenyl)-amino)methylene)malonate], for which the IC50 in experiment [1] and in experiment [2] was 2 µM in each case.

`COc1cc(OC)c(/C=C/S(=O)(=O)Cc2ccc(OC)c(N/C=C\C(=O)c3cc(OC)c(OC)c(OC)c3Cl)c2)c(OC)c1` [Ex. 7, (Z)-1-(2-chloro-3,4,5-trimethoxyphenyl)-3-((2-methoxy-5-(((E)-2,4,6-trimethoxystyrylsulfonyl)methyl)phenyl)amino)prop-2-en-1-one]: the IC50 in experiment [1] and in experiment [2] was 0.05 µM in each case.

On to `COc1cc(OC)c(/C=C/S(=O)(=O)Cc2ccc(OC)c(NC(=O)/C=C\C(=O)O)c2)c(OC)c1` [Ex. 171, (Z)-4-((2-methoxy-5-(((E)-2,4,6-trimethoxystyrylsulfonyl)methyl)phenyl)amino)-4-oxobut-2-enoic acid], for which the IC50 in experiment [1] and in experiment [2] was 2 µM in each case.

In the case of `C#CCN(CC#C)c1cc(CS(=O)(=O)/C=C/c2c(OC)cc(OC)cc2OC)ccc1OC` [Ex. 161, (E)-2-methoxy-N,N-di(prop-2-yn-1-yl)-5-(((2,4,6-trimethoxystyryl)sulfonyl)-methyl)aniline], the IC50 in experiment [1] and in experiment [2] was 2.5 µM each time.
